Values joined by “and” are separate entries in the source; they are usually repeats but may differ in a detail not shown here. Equal values may be shown once.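 Dose response: 5 concentrations. Exposure: 48 h. Format: 96-well plates. Endpoint: linear interpolation; highest concentration if not reached. GI50: concentration for 50% inhibition of growth. TGI denotes the concentration required for complete inhibition of growth.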
How the values were obtained:
Test in all cases: NCI anticancer screen, dose series, 48 h
[1] = test system: 786-0 renal
[2] = test system: DMS 273 small cell lung
[3] = test system: HOP-18 NSCLC
[4] = test system: KM20L2 colon
[5] = test system: LXFL 529 NSCLC
[6] = test system: M19-MEL melanoma
[7] = test system: SNB-78 CNS
[8] = test system: XF 498 CNS
[9] = test system: BT-549 breast
[10] = test system: MDA-MB-231 breast
[11] = test system: T-47D breast

Row | SMILES | TGI [1] | TGI [2] | TGI [3] | TGI [4] | TGI [5] | TGI [6] | TGI [7] | TGI [8] | TGI [9] | TGI [10] | GI50 [2] | GI50 [3] | GI50 [4] | GI50 [6] | TGI [11]
1 | CCOC(=O)N[C@@H]1C(CC(=O)OC)O[C@H]2OC(C)(C)O[C@H]21 (some centres undefined) | > 100 µM | > 100 µM | > 100 µM | > 100 µM | > 100 µM | > 100 µM | > 100 µM | > 100 µM | – | – | – | – | – | – | –
2 | CC(=O)O[C@H]1CCC2[C@@H]3CC[C@]4(C)CC(=O)C=C[C@]4(C)C3CC[C@@]21C (some centres undefined) | > 78.2 µM | 31.7 µM | > 53.7 µM | 43.5 µM | 28 µM | 34.7 µM | 22.3 µM | – | 32.1 µM | 77.9 µM | – | – | – | – | –
3 | CCCCNC1CCCCC[C@H]1O (some centres undefined) | > 100 µM | > 100 µM | > 100 µM | > 100 µM | > 100 µM | > 100 µM | > 100 µM | – | – | – | – | – | – | – | –
4 | CCOC(=O)/C(C)=C(/O)C(=O)OCC | > 100 µM | > 100 µM | > 100 µM | – | > 100 µM | – | > 100 µM | > 100 µM | – | – | – | – | – | – | –
5 | COc1cc(Cc2nccc3cc(OC)c(OC)cc23)c(C(C)=O)cc1OC | > 750 µM | 300 µM and > 750 µM | > 300 µM and 252 µM | 200 µM and > 750 µM | > 750 µM | 223 µM and > 750 µM | 214 µM | 300 µM | – | – | > 750 µM | 115 µM | > 750 µM | > 750 µM | 25.1 µM
6 | c1ccc(C2N3CCCCC3[C@@H]3c4[nH]c5ccccc5c4CCN23)nc1 (some centres undefined) | > 100 µM | > 100 µM | > 100 µM | > 100 µM | > 100 µM | > 100 µM | > 100 µM | – | – | – | – | – | – | – | –
7 | C=C(C)CCN[Si](c1ccccc1)(c1ccccc1)C(C)(C)C | 33.5 µM | 37.6 µM | 33.4 µM | 35.3 µM | – | 38 µM | 79 µM | 40.9 µM | – | – | – | – | – | – | –
8 | COC(=O)[C@@]12C(=O)C=CC(=O)C1C1C(=CC2C)OC2OC3(CCCCC3)OC21 (some centres undefined) | 32.4 µM | 36.2 µM | 34.6 µM | 38.4 µM | 26.3 µM | 35.1 µM | 42.3 µM | – | – | – | – | – | – | – | –
9 | CC1=CC(C)(C)N=C2SC(c3ccc(N)cc3)=NN12 | > 100 µM | > 61.2 µM | > 100 µM | > 100 µM | > 77.6 µM | > 100 µM | > 100 µM | > 100 µM | – | – | – | – | – | – | –
10 | CC(=O)C1Cn2c(nc3ccccc32)C[Se]1 (centres undefined) | 9.21 µM | – | 5.44 µM | 25.8 µM | 10.4 µM | 4.07 µM | 17.2 µM | – | – | – | – | – | – | – | –
11 | CCOC(=O)CCC(=O)C1c2cccc(O)c2C(=O)c2c(O)cc(C)cc21 (centres undefined) | 2.63 µM | 2.13 µM | 1.33 µM | 3.51 µM | 1.75 µM | 1.31 µM | 1.9 µM | 0.52 µM | – | – | – | – | – | – | –
12 | CCOC(=O)C(=O)Nc1ccccc1CC | > 100 µM | – | > 100 µM | – | > 100 µM | > 100 µM | – | > 100 µM | – | – | – | – | – | – | –
13 | O=C(CCc1nc(=S)[nH][nH]1)Nc1ccccc1Cl | > 100 µM | > 100 µM | > 100 µM | > 100 µM | > 100 µM | > 100 µM | > 100 µM | > 100 µM | – | – | – | – | – | – | –
